Test results: paper PMC9083112, “D-Allulose (D-Psicose) Biotransformation From Allitol by a Newly Found NAD(P)-Dependent Alcohol Dehydrogenase From Gluconobacter frateurii NBRC 3264 and the Enzyme Characterization” (Frontiers in Microbiology, 2022)

Target: T1, NAD(P)-dependent alcohol dehydrogenase (ADH) (Gluconobacter frateurii, UniProt Z9DFN4ZG31)
T1 construct: primers encode N-terminal MAQALVLEK and C-terminal DVKLQIVL
T1 sequence (Z9DFN4ZG31 1-345): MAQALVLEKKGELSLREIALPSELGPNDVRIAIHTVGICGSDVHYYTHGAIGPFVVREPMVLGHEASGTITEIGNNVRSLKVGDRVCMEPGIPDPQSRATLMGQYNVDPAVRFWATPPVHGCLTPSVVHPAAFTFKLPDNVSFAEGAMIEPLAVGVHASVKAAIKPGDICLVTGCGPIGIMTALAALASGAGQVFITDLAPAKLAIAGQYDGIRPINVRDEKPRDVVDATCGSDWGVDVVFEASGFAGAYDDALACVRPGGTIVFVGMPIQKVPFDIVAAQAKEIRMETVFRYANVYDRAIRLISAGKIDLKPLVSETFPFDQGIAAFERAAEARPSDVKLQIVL
Test: global fit (genetic algorithm) of HPLC time courses at […] allitol
Type: biochemical
Conditions: product inhibition, noncompetitive form with exponent alpha 1.326; one ki shared by fits with and without Co2+; allitol as substrate; NAD+ 2 mM, pH 7.0, 50 °C; purified or crude enzyme not stated

Ki: 10.7 mM
Structure (SMILES): OCC1(O)OC[C@@H](O)[C@@H](O)[C@H]1O (stereo partly drawn) [D-allulose]
